The term Ki denotes a dissociation constant, usually derived from enzyme kinetics or from competition with a known ligand.

The target in assay [1] is T1, human EP2 receptor (Homo sapiens, UniProt P43116).
T1 construct: purchased Millipore HTS185M
Put plainly: Competition binding in human EP2 receptor. The settings on record: [3H]-Prostaglandin E2 competition, membranes from EP2 cell line. As for the experimental part:
(§1) The compounds of the present invention were assayed for binding at human EP1, EP2, EP3 and EP4 receptors and were tested at several concentrations for IC50 determination.
Competition Binding in Human EP2 Receptor:
Prostaglandin EP2 receptor competition binding experiments were carried out in a polypropylene 96-well microplate plate with binding buffer (Hepes 50 mM, CaCl2 1 mM, MgCl2 5 mM, pH=7.4). In each well was incubated 10 μg of membranes from EP2 cell line (Millipore HTS185M, protein concentration=2000 μg/ml), 7.5 nM [3H]-Prostaglandin E2 (169.8 Ci/mmol, 0.1 mCi/ml, Perkin Elmer NET428250UC) and compounds studied and standard. Non-specific binding was determined in the presence of PGE2 200 μM (Cayman 14010). The reaction mixture (Vt: 250 μl/well) was incubated at 25° C. for 90 min, 200 μL was transferred to GF/C 96-well plate (Millipore, Madrid, Spain) after was filtered and washed four times with 250 μl wash buffer (Hepes 50 mM, NaCl 500 mM, pH=7.4), before measuring in a microplate beta scintillation counter (Microbeta Trilux, Perkin Elmer, Madrid, Spain). (Wilson et al., Br J Pharmacol 2006; 148:326-339).
(§2) The inhibition constants (Ki) were calculated using the Cheng Prusoff equation
(§3) [formula] where L=concentration of radioligand in the assay, and KD=affinity of the radioligand for the receptor. A scatchard plot is used to determine the KD.

For assay [2], the target named is T2, human EP4 receptor (Homo sapiens, UniProt P35408).
T2 construct: expressed in transfected cells; host or cells: HEK-EP4 cell line; membranes prepared in house
T2 sequence (P35408 whole entry): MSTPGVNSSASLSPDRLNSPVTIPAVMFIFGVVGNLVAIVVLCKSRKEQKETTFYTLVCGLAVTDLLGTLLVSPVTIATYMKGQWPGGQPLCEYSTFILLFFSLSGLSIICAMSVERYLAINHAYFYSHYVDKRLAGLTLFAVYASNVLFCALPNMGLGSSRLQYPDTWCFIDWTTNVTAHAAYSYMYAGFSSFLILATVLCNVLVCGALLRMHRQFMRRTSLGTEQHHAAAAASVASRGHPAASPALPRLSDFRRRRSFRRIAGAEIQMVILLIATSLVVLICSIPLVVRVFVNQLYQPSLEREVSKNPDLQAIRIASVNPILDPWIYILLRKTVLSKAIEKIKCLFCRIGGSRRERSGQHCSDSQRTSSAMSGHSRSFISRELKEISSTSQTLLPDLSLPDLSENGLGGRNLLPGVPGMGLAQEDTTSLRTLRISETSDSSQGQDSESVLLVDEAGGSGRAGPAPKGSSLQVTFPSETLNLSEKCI
Put plainly: Competition binding in human EP4 receptor. Conditions: [3H]-Prostaglandin E2 competition, membranes from HEK-EP4 cell line. As for the experimental part:
as §1
Competition Binding in Human EP4 Receptor:
Prostaglandin EP4 receptor competition binding experiments were carried out in a multiscreen GF/B 96-well plate (Millipore, Madrid, Spain) pretreated with binding buffer (Mes 25 mM, EDTA 1 mM, MgCl2 10 mM, pH=6.0). In each well was incubated 35 μg of membranes from HEK-EP4 cell line and prepared in our laboratory (Lot: A003/27-04-2011, protein concentration=2803 μg/ml), 1 nM [3H]-Prostaglandin E2 (169.8 Ci/mmol, 0.1 mCi/ml, Perkin Elmer NET428250UC) and compounds studied and standard. Non-specific binding was determined in the presence of PGE2 10 μM (Cayman 14010). The reaction mixture (Vt: 250 μl/well) was incubated at 25° C. for 120 min, 200 μL was transferred to GF/B 96-well plate (Millipore, Madrid, Spain) after was filtered and washed six times with 250 μl wash buffer (Mes 25 mM, BSA 0.01%, pH=6.0), before measuring in a microplate beta scintillation counter (Microbeta Trilux, Perkin Elmer, Madrid, Spain). (Abramovitz et al., Biochim Biophys Acta 2000; 1483:285-293).
as §2, §3

T1 sequence (P43116 whole entry): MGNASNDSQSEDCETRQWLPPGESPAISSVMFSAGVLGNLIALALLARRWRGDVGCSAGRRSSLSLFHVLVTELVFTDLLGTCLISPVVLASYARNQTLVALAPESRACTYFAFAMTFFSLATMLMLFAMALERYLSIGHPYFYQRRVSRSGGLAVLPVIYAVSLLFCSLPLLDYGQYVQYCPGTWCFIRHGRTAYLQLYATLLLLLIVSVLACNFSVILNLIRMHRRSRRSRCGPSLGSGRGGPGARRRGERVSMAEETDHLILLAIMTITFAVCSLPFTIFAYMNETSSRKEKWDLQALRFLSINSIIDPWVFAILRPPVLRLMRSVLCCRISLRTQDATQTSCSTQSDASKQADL

In the case of `O=C(O)c1ccc(CNC(=O)c2cc(-c3cccc(F)c3)ccc2Oc2ccc(F)cc2)cc1` [Example 5, 4-((3′-fluoro-4-(4-fluorophenoxy)-[1,1′-biphenyl]-3-carboxamido)methyl) benzoic acid], the inhibition constant Ki in assay [1] and in assay [2] was less than 100 nM throughout.
As to `O=C(O)c1ccc(CNC(=O)c2cc(-c3ccncc3)ccc2Oc2ccc(F)cc2)cc1` [Example 1, 4-((2-(4-fluorophenoxy)-5-(pyridin-4-yl)benzamido)methyl)benzoic acid], the Ki in assay [1] was not below 10000 nM; in assay [2], less than 100 nM.
Regarding `O=C(O)c1ccc(CNC(=O)c2cc(-c3ccc(F)cc3)ccc2Oc2ccc(F)cc2)cc1` [Example 4, 4-((4′-fluoro-4-(4-fluorophenoxy)-[1,1′-biphenyl]-3-carboxamido)methyl) benzoic acid], the Ki in assay [1] and in assay [2] was less than 100 nM in each case.
Consider `N#Cc1cccc(-c2ccc(Oc3ccc(F)cc3)c(C(=O)NCc3ccc(C(=O)O)cc3)c2)c1` [Example 8, 4-((3′-cyano-4-(4-fluorophenoxy)-[1,1′-biphenyl]-3-carboxamido)methyl) benzoic acid], for which the Ki in assay [1] and in assay [2] was less than 100 nM each time.
With `O=C(O)c1ccc(CNC(=O)c2cc(-c3cccc(-c4ccncc4)c3)ccc2Oc2ccc(F)cc2)cc1` [Example 26, 4-((4-(4-fluorophenoxy)-3′-(pyridin-4-yl)-[1,1′-biphenyl]-3-ylcarboxamido)methyl)benzoic acid], the Ki was not below 10000 nM in assay [1] and less than 100 nM in assay [2].
The corresponding values for `O=C(O)c1ccc(CNC(=O)c2cc(-c3cccc(C(F)(F)F)c3)ccc2Oc2ccc(F)cc2)cc1` [Example 15, 4-((4-(4-fluorophenoxy)-3′-(trifluoromethyl)-[1,1′-biphenyl]-3-carboxamido)methyl)benzoic acid] are less than 100 nM and less than 100 nM.
`O=C(O)c1ccc(CNC(=O)c2cc(-c3ccccc3)ccc2Oc2ccc(F)cc2)cc1` [Example 2, 4-((4-(4-fluorophenoxy)-[1,1′-biphenyl]-3-carboxamido)methyl)benzoic acid]: the Ki in assay [1] is not below 10000 nM; in assay [2] it was less than 100 nM.
For the compound `O=C(O)c1ccc(CNC(=O)c2cc(-c3cc(F)cc(F)c3)ccc2Oc2ccc(F)cc2)cc1` [Example 19, 4-((3′,5′-difluoro-4-(4-fluorophenoxy)-[1,1′-biphenyl]-3-carboxamido)methyl)benzoic acid], the Ki in assay [1] and in assay [2] was less than 100 nM throughout.
In the case of `O=C(O)c1ccc(CNC(=O)c2cc(-c3cc(F)cc(C(F)(F)F)c3)ccc2Oc2ccc(F)cc2)cc1` [Example 21, 4-((3′-fluoro-4-(4-fluorophenoxy)-5′-(trifluoromethyl)-[1,1′-biphenyl]-3-carboxamido)methyl)benzoic acid], the Ki in assay [1] and in assay [2] was less than 100 nM throughout.
As for `O=C(O)c1ccc(CNC(=O)c2cc(-c3cccc(Cl)c3)ccc2Oc2ccc(F)cc2)cc1` [Example 20, 4-((3′-chloro-4-(4-fluorophenoxy)-[1,1′-biphenyl]-3-carboxamido)methyl) benzoic acid], the Ki in assay [1] was 1000 to 10000 nM; in assay [2], less than 100 nM.
For the compound `O=C(O)c1ccc(CNC(=O)c2cc(-c3ccc(C(F)(F)F)cc3)ccc2Oc2ccc(F)cc2)cc1` [Example 14, 4-((4-(4-fluorophenoxy)-4′-(trifluoromethyl)-[1,1′-biphenyl]-3-carboxamido)methyl)benzoic acid], the figures for the Ki in assay [1] and in assay [2] were 100 to 1000 nM and 1000 to 10000 nM, respectively.
For `N#Cc1cc(F)cc(-c2ccc(Oc3ccc(F)cc3)c(C(=O)NCc3ccc(C(=O)O)cc3)c2)c1` [Example 31, 4-((3′-fluoro-5′-cyano-4-(4-fluorophenoxy)-[1,1′-biphenyl]-3-carboxamido)methyl)benzoic acid], the values for the Ki in assay [1] and in assay [2] were 1000 to 10000 nM and less than 100 nM, respectively.
Consider `O=C(O)c1ccc(CNC(=O)c2cc(-c3cccnc3)ccc2Oc2ccc(F)cc2)cc1` [Example 10, 4-((2-(4-fluorophenoxy)-5-(pyridin-3-yl)benzamido)methyl)benzoic acid], for which the Ki in assay [1] is 1000 to 10000 nM; in assay [2], less than 100 nM.
Turning to `N#Cc1ccc(-c2ccc(Oc3ccc(F)cc3)c(C(=O)NCc3ccc(C(=O)O)cc3)c2)cc1` [Example 7, 4-((4′-cyano-4-(4-fluorophenoxy)-[1,1′-biphenyl]-3-carboxamido)methyl) benzoic acid], the Ki in assay [1] is 1000 to 10000 nM; in assay [2], less than 100 nM.
On to `O=C(O)c1ccc(CNC(=O)c2cc(-c3cncnc3)ccc2Oc2ccc(F)cc2)cc1` [Example 12, 4-((2-(4-fluorophenoxy)-5-(pyrimidin-5-yl)benzamido)methyl)benzoic acid], for which the Ki in assay [1] was not below 10000 nM; in assay [2] it was 100 to 1000 nM.
In the case of `O=C(O)c1ccc(CNC(=O)c2cc(-c3ccccc3F)ccc2Oc2ccc(F)cc2)cc1` [Example 6, 4-((2′-fluoro-4-(4-fluorophenoxy)-[1,1′-biphenyl]-3-carboxamido)methyl) benzoic acid], the Ki was 1000 to 10000 nM in assay [1] and less than 100 nM in assay [2].
Take `O=C(O)c1ccc(CNC(=O)c2cc(-c3ccncc3F)ccc2Oc2ccc(F)cc2)cc1` [Example 9, 4-((2-(4-fluorophenoxy)-5-(3-fluoropyridin-4-yl)benzamido)methyl)benzoic acid]: the Ki in assay [1] is 1000 to 10000 nM; in assay [2] it was less than 100 nM.
On to `O=C(O)c1ccc(CNC(=O)c2cc(-c3cccs3)ccc2Oc2ccc(F)cc2)cc1` [Example 18, 4-((2-(4-fluorophenoxy)-5-(thiophen-2-yl)benzamido)methyl)benzoic acid], for which the Ki in assay [1] is 1000 to 10000 nM; in assay [2], less than 100 nM.
In the same order, the values of `O=C(O)c1ccc(CNC(=O)c2cc(-c3ccc(Cl)cc3)ccc2Oc2ccc(F)cc2)cc1` [Example 3, 4-((4′-chloro-4-(4-fluorophenoxy)-[1,1′-biphenyl]-3-carboxamido)methyl) benzoic acid] are not below 10000 nM and less than 100 nM.
Take `C[C@@H](NC(=O)c1cc(-c2cccc(C(F)(F)F)c2)ccc1Oc1ccc(F)cc1)c1ccc(C(=O)O)cc1` [Example 29, (R)-4-(1-(4-(4-fluorophenoxy)-3′-(trifluoromethyl)-[1,1′-biphenyl]-3-carboxamido)ethyl)benzoic acid]: the Ki in assay [1] is 1000 to 10000 nM; in assay [2], less than 100 nM.
Regarding `NC(=O)c1ccc(-c2ccc(Oc3ccc(F)cc3)c(C(=O)NCc3ccc(C(=O)O)cc3)c2)o1` [Example 27, 4-((5-(5-carbamoylfuran-2-yl)-2-(4-fluorophenoxy)benzamido)methyl) benzoic acid], the Ki in assay [1] and in assay [2] was 1000 to 10000 nM throughout.
For `N#Cc1cc(Cl)cc(-c2ccc(Oc3ccc(F)cc3)c(C(=O)NCc3ccc(C(=O)O)cc3)c2)c1` [Example 32, 4-((3′-chloro-5′-cyano-4-(4-fluorophenoxy)-[1,1′-biphenyl]-3-carboxamido)methyl)benzoic acid], the Ki was 1000 to 10000 nM in assay [1] and less than 100 nM in assay [2].
For `O=C(O)c1ccc(CNC(=O)c2cc(-c3ccc(F)c(F)c3)ccc2Oc2ccc(F)cc2)cc1` [Example 13, 4-((3′,4′-difluoro-4-(4-fluorophenoxy)-[1,1′-biphenyl]-3-carboxamido)methyl)benzoic acid], the Ki in assay [1] was less than 100 nM; in assay [2] it was 100 to 1000 nM.
The corresponding values for `O=C(O)c1ccc(CNC(=O)c2cc(-c3cccc(C(F)(F)F)c3)ccc2Oc2ccc(F)cc2)c(F)c1` [Example 28, 3-fluoro-4-((4-(4-fluorophenoxy)-3′-(trifluoromethyl)-[1,1′-biphenyl]-3-ylcarboxamido)methyl)benzoic acid] are 1000 to 10000 nM and less than 100 nM.
`O=C(O)c1ccc(C2(NC(=O)c3cc(-c4cccc(C(F)(F)F)c4)ccc3Oc3ccc(F)cc3)CC2)cc1` [Example 30, 4-(1-(4-(4-fluorophenoxy)-3′-(trifluoromethyl)-[1,1′-biphenyl]-3-carboxamido)cyclopropyl)benzoic acid]: the Ki in assay [1] was 1000 to 10000 nM; in assay [2] it was less than 100 nM.
As to `O=C(O)c1ccc(CNC(=O)c2cc(-c3ccncc3Cl)ccc2Oc2ccc(F)cc2)cc1` [Example 11, 4-((2-(4-fluorophenoxy)-5-(3-chloropyridin-4-yl)benzamido)methyl)benzoic acid], the figures for the Ki in assay [1] and in assay [2] were not below 10000 nM and 100 to 1000 nM, respectively.

Values taken from patent US11872226B2, “N-benzyl-2-phenoxybenzamide derivatives as prostaglandin E2 (PGE2) receptors modulators” (MEDIBIOFARMA, S.L., priority 2019, dated 2024).
